# In US4349545A, “Novel erythromycin a derivatives” (Roussel Uclaf, priority 1980, dated 1982):
# Read-outs that look alike come from different tables or passages of the source.
# Key:
# [1] = tested on: Streptococcus pyogenes A 561; assay: serial dilution liquid medium MIC, Streptococcus pyogenes A 561; type: cell-based; conditions: A561, 24 hours at 37° C., read-out: minimum inhibiting concentration (MIC)
# Protocol: (§1) The method was a serial dilution of liquid medium test wherein a series of tubes were prepared containing the same amount of sterile nutritive medium and increasing amounts of the test product was distributed in each tube. The tubes were then seeded with a bacterial strain and incubated for 24 hours in an oven at 37° C. The degree of inhibition was determined by transillumination to determine the minimum inhibiting concentration (MIC) express in μg/ml and the results are reported in the following Tables.
# [2] = tested on: Staphylococcus aureus ATCC 6538; assay: serial dilution liquid medium MIC, Staphylococcus aureus ATCC 6538 Pen-Sensibles; type: cell-based; conditions: read-out: minimum inhibiting concentration (MIC)
# Protocol: as §1
# [3] = tested on: Bacillus subtilis ATCC 6 633; assay: serial dilution liquid medium MIC, Bacillus subtilis ATCC 6 633; type: cell-based; conditions: ATCC6, 24 hours at 37° C., read-out: minimum inhibiting concentration (MIC)
# Protocol: as §1
# [4] = tested on: Staphylococcus aureus exp. n° 54 146; assay: serial dilution liquid medium MIC, Staphylococcus aureus exp. n° 54 146; type: cell-based; conditions: Staphylococcus aureus exp. 54 146; 24 hours at 37° C.; read-out: minimum inhibiting concentration (MIC)
# Protocol: as §1
# [5] = tested on: Streptococcus faecalis 99 F 74; assay: serial dilution liquid medium MIC, Streptococcus faecalis 99 F 74; type: cell-based; conditions: Enterococcus faecalis, 99F74, 24 hours at 37° C., read-out: minimum inhibiting concentration (MIC)
# Protocol: as §1
# [6] = tested on: Staphylococcus aureus UC 1128; assay: serial dilution liquid medium MIC, Staphylococcus aureus UC 1128 pen-resistant; type: cell-based; conditions: read-out: minimum inhibiting concentration (MIC)
# Protocol: as §1
# [7] = tested on: Streptococcus faecalis 5432; assay: serial dilution liquid medium MIC, Streptococcus faecalis 5432; type: cell-based; conditions: Enterococcus faecalis, 24 hours at 37° C., read-out: minimum inhibiting concentration (MIC)
# Protocol: as §1
# [8] = tested on: Staphylococcus aureus No. 54,146; assay: In vivo activity in mice experimentally infected with Staphylococcus aureus No. 54,146; conditions: groups of 10 mice
# Protocol: The test was effected with the compounds of the invention and erythromycin as a reference on groups of 10 mice weighing about 21 g experimentally infected with Staphylococcus aureus No. 54,146 by intraperitoneal administration of 0.5 ml of a 22 hour culture of the said organism in bouillon with a pH of 7 diluted to 1/6 with physiological water. The test compounds were orally administrated to the mice 1,5 and 24 hours after the infection and the mortality on the 8th day was determined.
# [9] = tested on: Streptococcus pyrogenes A561; assay: In vivo activity in mice experimentally infected with Streptococcus pyrogenes A561; conditions: groups of 10 male mice
# Protocol: In a second test, groups of 10 male mice weighing about 21 g were experimentally infected by an intraperitoneal injection of 0.5 ml of a 22 hour culture of Streptococcus pyrogenes A561 in Todd Hewitt bouillon with a pH of 7 diluted to 1/1000 with physiological water. The compounds of Examples 1 or 5 were administered orally 1,5 and 24 hours after the infection and the number of mice living on the fifth day was determined.
# [10] = tested on: Streptococcus faecalis 5435; assay: serial dilution liquid medium MIC, Streptococcus faecalis 5435; type: cell-based; conditions: Enterococcus faecalis, 24 hours at 37° C., read-out: minimum inhibiting concentration (MIC)
# Protocol: as §1
# [11] = tested on: Staphylococcus aureus 1061; assay: serial dilution liquid medium MIC, Staphylococcus aureus 1061 pen-sensibles; type: cell-based; conditions: 24 hours at 37° C., read-out: minimum inhibiting concentration (MIC)
# Protocol: as §1
# [12] = Staphylococcus aureus, ATCC6538, 24 h
# [13] = UC1128, Staphylococcus aureus UC 1128 pen-resistant, 24 hours at 37° C.
# [14] = ATCC6538, Staphylococcus aureus ATCC 6538 Pen-Sensibles, 24 hours at 37° C.
# [15] = dose 0,5mg oral, 1,5 and 24 hours after infection
# [16] = dose 0,75mg oral, 1,5 and 24 hours after infection
# [17] = dose 1mg oral, 1,5 and 24 hours after infection
# [18] = dose 0,25mg oral, 1,5 and 24 hours after infection
Compound,MIC [1],"MIC [2, 12]",MIC [3],MIC [4],MIC [5],"MIC [6, 13]",MIC [7],"MIC [2, 14]","No. of mice living on the 8th day [8, 15]","No. of mice living on the 8th day [8, 16]","No. of mice living on the 8th day [8, 17]","MIC ([6]; Staphylococcus aureus, UC1128, 24 h)","No. of mice alive on 5th day ([9]; dose 0.5 mg oral, 1,5 and 24 hours after infection)","No. of mice alive on 5th day ([9]; dose 1 mg oral, 1,5 and 24 hours after infection)","No. of mice living on the 8th day [8, 18]","No. of mice alive on 5th day ([9]; dose 0.1 mg oral, 1,5 and 24 hours after infection)",MIC [10],MIC [11]
"CC[C@H]1OC(=O)[C@H](C)[C@@H](O[C@H]2C[C@@](C)(OC)[C@@H](O)[C@H](C)O2)[C@H](C)[C@@H](O[C@@H]2O[C@H](C)C[C@H](N(C)C)[C@H]2O)[C@](C)(O)C[C@@H](C)C(=NOCOCc2ccccc2)[C@H](C)[C@@H](O)[C@]1(C)O [Example 7, 9-[0-benzyloxymethoxy-oxime] of erythromycin]",0.05 µg/mL,0.2 µg/mL,0.1 µg/mL,0.5 µg/mL,0.1 µg/mL,1 µg/mL,0.1 µg/mL,,,,,,,,,,,
"CCOCCON=C1[C@H](C)C[C@@](C)(O)[C@H](O[C@@H]2O[C@H](C)C[C@H](N(C)C)[C@H]2O)[C@@H](C)[C@H](O[C@H]2C[C@@](C)(OC)[C@@H](O)[C@H](C)O2)[C@@H](C)C(=O)O[C@H](CC)[C@@](C)(O)[C@H](O)[C@H]1C [Example 3, 9-[0-(2-ethoxyethyl)-oxime] of erythromycin]",0.1 µg/mL,,0.2 µg/mL,0.5 µg/mL,0.2 µg/mL,1 µg/mL,0.2 µg/mL,0.5 µg/mL,7 mice,9 mice,9 mice,,,,,,,
"CC[C@H]1OC(=O)[C@H](C)[C@@H](O[C@H]2C[C@@](C)(OC)[C@@H](O)[C@H](C)O2)[C@H](C)[C@@H](O[C@@H]2O[C@H](C)C[C@H](N(C)C)[C@H]2O)[C@](C)(O)C[C@@H](C)C(=NOCCOc2ccc(Cl)cc2)[C@H](C)[C@@H](O)[C@]1(C)O [Example 2, 9-[0-(2-{4-chlorophenoxy}-ethyl)-oxime] of erythromycin]",≤ 0.02 µg/mL,0.1 µg/mL,0.2 µg/mL,0.5 µg/mL,0.1 µg/mL,,0.1 µg/mL,,,,,1 µg/mL,,,,,,
"CC[C@H]1OC(=O)[C@H](C)[C@@H](O[C@H]2C[C@@](C)(OC)[C@@H](O)[C@H](C)O2)[C@H](C)[C@@H](O[C@@H]2O[C@H](C)C[C@H](N(C)C)[C@H]2O)[C@](C)(O)C[C@@H](C)C(=NOCOCCOC)[C@H](C)[C@@H](O)[C@]1(C)O [Example 1, 9-[0-(2-methoxyethoxy)-methyloxime] of erythromycin]",0.05 µg/mL,0.5 µg/mL,0.2 µg/mL,1 µg/mL,0.2 µg/mL,2 µg/mL,0.2 µg/mL,,10 mice,,,,2 mice,10 mice,7 mice,,,
"CCOCCOCON=C1[C@H](C)C[C@@](C)(O)[C@H](O[C@@H]2O[C@H](C)C[C@H](N(C)C)[C@H]2O)[C@@H](C)[C@H](O[C@H]2C[C@@](C)(OC)[C@@H](O)[C@H](C)O2)[C@@H](C)C(=O)O[C@H](CC)[C@@](C)(O)[C@H](O)[C@H]1C [Example 4, 9-[0-(2-ethoxyethoxymethyl)-oxime] of erythromycin]",0.05 µg/mL,,0.5 µg/mL,2 µg/mL,0.2 µg/mL,3 µg/mL,0.5 µg/mL,2 µg/mL,4 mice,9 mice,10 mice,,,,0 mice,,,
"CC[C@H]1OC(=O)[C@H](C)[C@@H](O[C@H]2C[C@@](C)(OC)[C@@H](O)[C@H](C)O2)[C@H](C)[C@@H](O[C@@H]2O[C@H](C)C[C@H](N(C)C)[C@H]2O)[C@](C)(O)C[C@@H](C)C(=NOCCN(C)C)[C@H](C)[C@@H](O)[C@]1(C)O [Example 5, 9-[0-(2-dimethylaminoethyl)-oxime] of erythromycin]",≤ 0.02 µg/mL,,0.5 µg/mL,1 µg/mL,0.05 µg/mL,1 µg/mL,0.05 µg/mL,1 µg/mL,8 mice,10 mice,,,,,2 mice,10 mice,,
"CC[C@H]1OC(=O)[C@H](C)[C@@H](O[C@H]2C[C@@](C)(OC)[C@@H](O)[C@H](C)O2)[C@H](C)[C@@H](O[C@@H]2O[C@H](C)C[C@H](N(C)C)[C@H]2O)[C@](C)(O)C[C@@H](C)C(=NOCC(=O)C(C)(C)C)[C@H](C)[C@@H](O)[C@]1(C)O [Example 15, 9-[0-(3,3-dimethyl-2-oxo-butyl)-oxime] of erythromycin]",0.1 µg/mL,,,0.6 µg/mL,0.2 µg/mL,1 µg/mL,0.1 µg/mL,,9 mice,10 mice,,,,,1 mice,,0.6 µg/mL,0.6 µg/mL
"CCOCON=C1[C@H](C)C[C@@](C)(O)[C@H](O[C@@H]2O[C@H](C)C[C@H](N(C)C)[C@H]2O)[C@@H](C)[C@H](O[C@H]2C[C@@](C)(OC)[C@@H](O)[C@H](C)O2)[C@@H](C)C(=O)O[C@H](CC)[C@@](C)(O)[C@H](O)[C@H]1C [Example 20, 9-[0-(ethoxymethyl)-oxime] of erythromycin]",0.1 µg/mL,,,0.4 µg/mL,0.1 µg/mL,0.6 µg/mL,0.1 µg/mL,,4 mice,10 mice,,,,,2 mice,,0.2 µg/mL,0.4 µg/mL
